In patent US5447937A, “CNS active tetrahydrobenzothienopyridines” (SmithKline Beecham p.l.c., priority 1991, dated 1995):

How the values were obtained:
[1] = test system: Rats; test: Geller-Seifter procedure (conflict session, anxiolytic properties); type: in vivo, rat; details: FR5 conflict session
Description: 1. Geller-Seifter Procedure
Potential anxiolytic properties have been evaluated using the Geller-Seifter procedure based on that originally described by Geller and Seifter, (1960) Psychopharmacologia, 1,482-492.
Rats are trained on a variable interval 30 sec schedule (VI30) to press a lever in order to obtain food reward. The 5 min sessions of the VI30 schedule alternate with 2-5 min of a schedule (FR5) in which every 5th lever press is followed by presentation of a food pellet paired with a 0.5 sec mild footshock. The total study lasts approximately 30 mins. Rats typically respond with high rates of lever pressing under the VI30 schedule and low response rates under the FR5 `conflict` session. Anxiolytic drugs increase the suppressed response rates of rats in `conflict` session.
Drugs are administered intraperitoneally or orally to groups of 3-8 rats 30 min before testing.
The results are expressed as the percentage increase in square root of the total number of lever presses in the FR5 `conflict` session. Square root transformation is necessary to normalise the data for statistical analysis using parametric methods (ANOVA).

[2] = target: rat cerebral cortex membranes ([35S]-TBPS binding); test: [35S]-TBPS binding to rat cerebral cortex membranes in vitro; details: 2 nM [35S]-TBPS, 5x10^-6 M GABA
Description: 2. [^35 S]-TBPS binding to rat cerebral cortex membranes in vitro
Pooled rat cerebral cortices are homogenised in 20 volumes of 0.32M sucrose and centrifuged at 1000 g for 20 minutes (4° C.). The supernatant is removed and recentrifuged at 50,000 g (4° C., 20 mins). The P2 pellet is then suspended in 20 volumes of Tris citrate buffer (pH 7.1) and centrifuged at 50,000 g (4° C., 20 mins). This washing step is repeated three times and the pellet finally resuspended in 20 volumes of buffer and stored at -70° C. prior to use.
The tissue suspension ([…]) is incubated (25° C., 120 mins) with [^35 S]-TBPS (2 nM) in Tris citrate buffer (pH 7.1) containing 0.2M NaCl and 5×10^-6 M GABA. Non-specific binding is measured in the presence of 10^-4 M picrotoxin. Varying concentrations of test drugs (10^-7, 10^-6, 10^-5 and 10^-4 M final concentration) are added in a volume of […]. The total assay volume is […]. Incubation is stopped by rapid filtration using a Skatron cell harvester and radioactivity measured by liquid scintillation spectrometry. IC50 's are calculated as the concentration of test drug to inhibit 50% of specific binding.

[3] = test system: Mice; test: MES Test (maximal electroshock seizure); type: in vivo, mouse; details: 100 mg/kg p.o.
Description: The maximal electroshock seizure (MES) test in rodents is one of the most widely used models of human grand mal epilepsy^1. In this model, anticonvulsant agents elevate the threshold to electrically-induced seizures whilst proconvulsants lower the seizure threshold.
Mice (male, Charles River, U.K. CD-1 strain, 25-30 g) are randomly assigned to groups of 10-20 and dosed orally or intraperitoneally at a dose volume of 10 ml/kg with various doses of compound (1-100 mg/kg) or vehicle. Mice are then subjected at 30 or 60 rain post dose to a variable voltage electroshock (0.1 sec., 50 Hz, sine wave form) via a buccal and a subcutaneous electrode. The mean voltage and standard error required to induce a tonic seizure in 50% (CV50) of the mice in the group is determined by the `up and down` method of Dixon and Mood (1948)^2. Statistical comparisons between vehicle- and drug-treated groups are made using the method of Litchfield and Wilcoxon (1949)^3.
If a tonic convulsion does occur, then the voltage is decreased, and so on until all the animals in the group have been tested.
The percentage increase or decrease in CV50 for each group compared to the control is calculated.
Studies are carried out using a Heathkit shock generator with totally variable control of shock level from 0 to 200 V and voltage steps of 5 V are used.
Drugs are suspended in 1% methyl cellulose.

| SMILES | responding in the 'conflict' session ([1]; 10 mg/kg p.o.) | IC50 [2] | responding in the 'conflict' session ([1]; 20 mg/kg p.o.) | CV50 (voltage inducing tonic seizure in 50% of mice) [3] |
| --- | --- | --- | --- | --- |
| C#CCOC(=O)c1c(C)nc2sc3c(c2c1N)CCC(O)C3 (racemic) [Example 8, (±)-4-Amino-7-hydroxy-2-methyl-5,6,7,8-tetrahydrobenzo[b]thieno[2,3-b]pyridine-3-carboxylic acid, prop-2-ynyl ester] | significant increase | – | – | – |
| C#CCCOC(=O)c1c(C)nc2sc3c(c2c1N)CCC(O)C3 (racemic) [Example 9, (±)-4-Amino-7-hydroxy-2-methyl-5,6,7,8-tetrahydrobenzo[b]thieno[2,3-b]pyridine-3-carboxylic acid, but-3-ynyl ester] | significant increase | – | – | – |
| CCOC(=O)c1c(C)nc2sc3c(c2c1N(C)C)CCC(OC)C3 (racemic) [Example 19, (±)-4-Dimethylamino-7-methoxy-2-methyl-5,6,7,8-tetrahydrobenzo[b]thieno[2,3-b]pyridine-3-carboxylic acid, ethyl ester] | – | < 20 µM | – | – |
| COC(=O)c1c(C)nc2sc3c(c2c1N)CCC(O)C3 (racemic) [Example 7, (±)-4-Amino-7-hydroxy-2-methyl-5,6,7,8-tetrahydrobenzo[b]thieno[2,3-b]pyridine-3-carboxylic acid, methyl ester] | – | – | significant increase | – |
| CCOC(=O)c1c(C)nc2sc3c(c2c1N)CCC(O)C3 (single isomer, unassigned; (+)) [Example 3, (+)-4-Amino-7-hydroxy-2-methyl-5,6,7,8-tetrahydrobenzo[b]thieno[2,3-b]pyridine-3-carboxylic acid, ethyl ester] | – | < 20 µM | – | – |
| Cc1nc2sc3c(c2c(N)c1C(=O)OCC1CC1)CCC(O)C3 (racemic) [Example 6, (±)-4-Amino-7-hydroxy-2-methyl-5,6,7,8-tetrahydrobenzo[b]thieno[2,3-b]pyridine-3-carboxylic acid, cyclopropylmethyl ester] | – | < 20 µM | significant increase | – |
| CC#CCOC(=O)c1c(C)nc2sc3c(c2c1N)CCC(O)C3 (racemic) [Example 4, (±)-4-Amino-7-hydroxy-2-methyl-5,6,7,8-tetrahydrobenzo[b]thieno[2,3-b]pyridine-3-carboxylic acid, but-2-ynyl ester] | – | < 20 µM | significant increase | – |
| CCOC(=O)c1c(C)nc2sc3c(c2c1N)CCC(O)C3 (racemic) [Example 1, (±)-4-Amino-7-hydroxy-2-methyl-5,6,7,8-tetrahydrobenzo[b]thieno[2,3-b]pyridine-3-carboxylic acid, ethyl ester] | – | < 20 µM | significant increase | significant increase |
| C=CCCOC(=O)c1c(C)nc2sc3c(c2c1N)CCC(O)C3 (racemic) [Example 10, (±)-4-Amino-7-hydroxy-2-methyl-5,6,7,8-tetrahydrobenzo[b]thieno[2,3-b]pyridine-3-carboxylic acid, but-3-enyl ester] | – | – | significant increase | – |
| Cc1nc2sc3c(c2c(N)c1C(=O)OCC1CCC1)CCC(O)C3 (racemic) [Example 5, (±)-4-Amino-7-hydroxy-2-methyl-5,6,7,8-tetrahydrobenzo[b]thieno[2,3-b]pyridine-3-carboxylic acid, cyclobutylmethyl ester] | – | < 20 µM | – | – |
